Values joined by “and” are separate entries in the source; they are usually repeats but may differ in a detail not shown here. Equal values may be shown once. Read-outs that look alike come from different tables or passages of the source.
Legend:
[1] = test system: B/Brisbane/60/2008; experiment: Hemagglutination inhibition titers after seasonal influenza vaccination, B vaccine strain; type: in vivo, human; details: for HI GMT B, Baseline: 2 weeks prior to influenza vaccination; for HI GMT B, Week 4: 4 weeks after influenza vaccination
Description: (§1) The trial was observer-blind because the placebo in the RAD001 0.5 mg daily and 20 mg weekly cohorts differed slightly from the RAD001 tablets in those cohorts. […] The treatment duration for all cohorts was 6 weeks during which time subjects underwent safety evaluations in the clinic every 2 weeks. After subjects had been dosed for 4 weeks, RAD001 steady state levels were measured pre-dose and at one hour post dose. After completing the 6 week course of study drug, subjects were given a 2 week drug free break to reverse any possible RAD001-induced immunosuppression, and then were given a 2012 seasonal influenza vaccination (Agrippal®, Novartis Vaccines and Diagnostics, Siena, Italy) containing the strains H1N1 A/California/07/2009, H3N2 A/Victoria/210/2009, B/Brisbane/60/2008. Four weeks after influenza vaccination, subjects had serum collected for influenza titer measurements. Antibody titers to the 3 influenza vaccine strains as well as to 2 heterologous strains (A/H1N1 strain A/New Jersey/8/76 and A/H3N2 strain A/Victoria/361/11) were measured by standard hemagglutination inhibition assay (Kendal, A P et al. (1982) Concepts and procedures for laboratory-based influenza surveillance. Atlanta: Centers for Disease Control and Prevention B17-B35). Levels of IgG and IgM specific for the A/H1N1/California/07/2009 were measured in serum samples taken before and 4 weeks after influenza vaccination as described previously (Spensieri, F. et al. (2013) Proc. Natl. Acad. Sci. USA 110:14330-14335). Results were expressed as fluorescence intensity.
The primary analysis of geometric mean titer ratios was done using a normal Bayesian regression model with non-informative priors. This model was fitted to each antibody titer on the log scale. The primary outcome in each model was the Day 84 measurement. The Day 63 measurement was included in the outcome vector. The model fitted using SAS 9.2 proc mixed with the prior statement. The covariance structure of the matrix was considered as unstructured (option type=UN). A flat prior was used. For the secondary analysis of seroconversion rates, logistic regression was used.
The ability of RAD001 to improve immune function in elderly volunteers was evaluated by measuring the serologic response to the 2012 seasonal influenza vaccine. The hemagglutination inhibition (HI) geometric mean titers (GMT) to each of the 3 influenza vaccine strains at baseline and 4 weeks after influenza vaccination are provided in Table 6. The primary analysis variable was the HI GMT ratio (4 weeks post vaccination/baseline).
Rates of seroconversion 4 weeks after influenza vaccination were also evaluated. Seroconversion was defined as the change from a negative pre-vaccination titer (i.e., HI titer <1:10) to post-vaccination HI titer ≧1:40 or at least 4-fold increase from a non-negative (≧1:10) pre-vaccination HI titer.

[2] = test system: A/H1N1/California/07/2009; experiment: Serum anti-influenza IgG and IgM levels before and 4 weeks after vaccination; type: in vivo, human; details: RAD001 vs placebo treated cohorts
Description: as §1, with “After completing the 6 week course of study drug, subjects were given a 2 week drug free break to reverse any possible RAD001-induced immunosuppression, and then were given a 2012 seasonal influenza vaccination (Agrippal®, Novartis Vaccines and Diagnostics, Siena, Italy) containing the strains H1N1 A/California/07/2009, H3N2 A/Victoria/210/2009, B/Brisbane/60/2008. Four weeks after influenza vaccination, subjects had serum collected for influenza titer measurements.” left out

[3] = in vivo
[4] = PK analysis of RAD001 in blood of tumor bearing NSG mice; type: in vivo; details: for concentration at 24 h: mouse, whole blood
Description: RAD001 dosing: A concentrated micro-emulsion of 50 mg equal to 1 mg RAD001 was formulated and then resuspended in D5W (dextrose 5% in water) at the time of dosing. Mice were orally dosed daily (via oral gavage) with 200 μl of the desired doses of RAD001.
PK analysis: Mice were dosed daily with RAD001 starting 7 days post tumor implantation. Dosing groups were as follows: 0.3 mg/kg, 1 mg/kg, 3 mg/kg, and 10 mg/kg. Mice were bled on days 0 and 14 following the first and last dose of RAD001, at the following time points for PK analysis: 15 minutes, 30 minutes, 1 hour, 2 hours, 4 hours, 8 hours, 12 hours, and 24 hours.

[5] = test system: PD-1-positive CD4, CD8 and PD-1-negative CD4 T cells; set-up: species or system human; details: in vivo
[6] = test system: A/H3N2 strain A/Victoria/361/11; experiment: Hemagglutination inhibition titers to heterologous A/H3N2 strain not in the vaccine; type: in vivo, human
[7] = test system: influenza vaccine strains (H1N1 A/California/07/2009, H3N2 A/Victoria/210/2009, B/Brisbane/60/2008); experiment: Influenza vaccine strain titers after RAD001 dosing versus placebo; type: in vivo, human; details: 4 weeks after vaccination; RAD001 dosing cohorts; intention to treat population
Description: In FIG. 1A, the increase above baseline in influenza geometric mean titers to each of the 3 influenza vaccine strains (H1N1 A/California/07/2009, H3N2 A/Victoria/210/2009, B/Brisbane/60/2008) relative to the increase in the placebo cohort 4 weeks after vaccination is shown for each of the RAD001 dosing cohorts in the intention to treat population. […] FIG. 1B is a graph of the same data as in FIG. 1A for the subset of subjects with baseline influenza titers <=1:40.
RAD001 concentrations (1 hour post dose) were measured after subjects had been dosed for 4 weeks. All subjects who had pharmacokinetic measurements were included in the analysis set. The fold increase in geometric mean titers at 4 weeks post vaccination relative to baseline is shown on the y axis.

[8] = test system: humanized CD19 CART cells; details: RAD001 0.003 mg/kg daily with huCTL019; compared with normal level of huCAR19 proliferation
[9] = test system: heterologous influenza strains (A/H1N1 strain A/New Jersey/8/76 and A/H3N2 strain A/Victoria/361/11); set-up: species or system human; details: in vivo
[10] = test system: huCART19 cells; experiment: 4 day co-culture proliferation assay of CART cells with NALM6 target cells; type: cell-based, human; details: 4 day co-culture with NALM6, 1:1

For CO[C@H]1C[C@@H]2CC[C@@H](C)[C@@](O)(O2)C(=O)C(=O)N2CCCC[C@H]2C(=O)O[C@H]([C@H](C)C[C@@H]2CC[C@@H](OCCO)[C@H](OC)C2)CC(=O)[C@H](C)/C=C(\C)[C@@H](O)[C@@H](OC)C(=O)[C@H](C)C[C@H](C)/C=C/C=C/C=C/1C [RAD001, (1R,9S,12S,15R,16E,18R,19R,21R,23S,24E,26E,28E,30S,32S,35R)-1,18-dihydroxy-12-{(1R)-2-[(1S,3R,4R)-4-(2-hydroxyethoxy)-3-methoxycyclohexyl]-1-methylethyl}-19,30-dimethoxy-15,17,21,23,29,35-hexamethyl-11,36-dioxa-4-aza-tricyclo[30.3.1.04,9]hexatriaconta-16,24,26,28-tetraene-2,3,10,14,20-pentaone], the “HI GMT ratio B (week 4 post vaccination/baseline)” value ([1]; 0.5 mg daily, N = 50) was 2.5, the “HI GMT B, Baseline” value ([1]; 0.5 mg daily, N = 50) was 44.2 and the “HI GMT B, Week 4” value ([1]; 0.5 mg daily, N = 50) was 98.4. The “HI GMT ratio B (week 4 post vaccination/baseline)” value ([1]; 5 mg weekly, N = 49) was 2.2, the “HI GMT B, Baseline” value ([1]; 5 mg weekly, N = 49) was 64.8 and the “HI GMT B, Week 4” value ([1]; 5 mg weekly, N = 49) was 117.3. For the same molecule, the “HI GMT ratio B (week 4 post vaccination/baseline)” value ([1]; 20 mg weekly, N = 49) was 2.1, the “HI GMT B, Baseline” value ([1]; 20 mg weekly, N = 49) was 58.0 and the “HI GMT B, Week 4” value ([1]; 20 mg weekly, N = 49) was 99.2. For the same molecule, the “Percent of subjects with seroconversion to influenza B 4 weeks after vaccination” value (from here on “Percent of subjects with seroconversion”) ([1]; Intention to Treat Population, 0.5 mg, N = 48) was 27%, the “Percent of subjects with seroconversion” value ([1]; Intention to Treat Population, 5 mg, N = 49) was 22% and the “Percent of subjects with seroconversion” value ([1]; Intention to Treat Population, 20 mg, N = 48) was 19%. For the same molecule, the “Percent of subjects with seroconversion” value ([1]; Subjects with Baseline Titers <=40, 0.5 mg, * p < 0.05 vs placebo) was 40* Percent, the “Percent of subjects with seroconversion” value ([1]; Subjects with Baseline Titers <=40, 5 mg) was 33% and the “Percent of subjects with seroconversion” value ([1]; Subjects with Baseline Titers <=40, 20 mg) was 28%. The “Post-vaccination anti-influenza IgM and IgG levels” value [2] was “did not differ between RAD001 and placebo treated cohorts”, the “Trough level of the immunization study regimens relative to approved transplant and oncology regimens” value ([3]; human) was 3-20 fold lower and the “Average RAD001 trough level” value [3] was “below detection limits”. The concentration at 24 h ([4]; NSG, lowest dose tested (0.3 mg/kg) oral daily, day 0 and day 14, read-out: RAD001 concentration in the blood 24 hours after dosing) was greater than 0.01 µM, the “Stability in the blood of tumor bearing mice” value ([4]; daily oral dosing, day 0 and day 14 PK) was “fairly stable” and the concentration at 24 h ([4]; 0.3 mg/kg, NSG mice, daily oral dosing, read-out: Concentration of RAD001 24 hours after the final dose) was greater than 0.01 µM. For the same molecule, the “decrease in PD-1+ CD4 T cells, pooled RAD cohort compared to placebo” value [5] was 30.2%, the “decrease in PD-1-positive CD4 T cells as compared to placebo cohort” value [5] was −37.1-−28.5% and the “decrease in PD-1-positive CD4 T cells, pooled RAD cohort compared to placebo” value [5] was 32.7%. For the same molecule, the “decrease in PD-1-positive CD8 T cells as compared to placebo cohort” value [5] was −43.3-−38.5%, the “decrease in PD-1-positive CD8 T cells, pooled RAD001 cohort compared to placebo” value [5] was 37.4% and 41.4% and the “increase in PD-1-negative CD4 T cells as compared to placebo cohort” value [5] was 3.0-4.9%. The “Percentage of subjects who seroconvert to heterologous A/H3N2 strain A/Victoria/361/11 4 weeks after seasonal influenza vaccination” value ([6]; 0.5 mg daily) was 38%, the “Percentage of subjects who seroconvert to heterologous A/H3N2 strain A/Victoria/361/11 4 weeks after seasonal influenza vaccination” value ([6]; 5 mg weekly, * p < 0.05 vs placebo) was 39%* and the “Percentage of subjects who seroconvert to heterologous A/H3N2 strain A/Victoria/361/11 4 weeks after seasonal influenza vaccination” value ([6]; 20 mg weekly, * p < 0.05 vs placebo) was 40%*. For the same molecule, the “Increase in the HI GMT ratio for the heterologous strain” value ([6]; RAD001 vs placebo cohorts) was “higher in the RAD001 as compared to placebo cohorts”, the “H3N2 heterologous strain seroconversion rate” value ([6]; pooled RAD001 cohorts, versus 20% for placebo, p=0.007) was 39% and the “increase above baseline in influenza geometric mean titers to the 3 influenza vaccine strains relative to placebo” value [7] was “increase in titers”. For the same molecule, the “CAR T cell proliferation in vivo (CD4+ and CD8+ CAR T cells)” value [8] was “enhancement in CAR T cell proliferation”, the “increase above baseline in influenza geometric mean titers to 2 heterologous influenza strains relative to placebo” value [9] was “increase in titers” and the “RAD001 concentration in whose presence huCART19 cells expanded (lesser extent at higher concentrations)” value [10] was “less than 0.016 nM”.
